Experimental data taken from patent publication US8846951B2 (AbbVie Inc., priority 2009, dated 2014).
“Also recorded” adds a separate entry of the source.

Tests used:
[1] = tested on: AMP- or PCP-induced hyperactivity; experiment: Psychostimulant (AMP or PCP)-induced hyperlocomotion in mice; assay type: in vivo, mouse
Excerpt: (x) Assessment of Effects on Psychostimulant-Induced Hyperlocomotion in Mice
In both humans and experimental animals amphetamine (AMP) profoundly affects motor activity, sensorimotor function, sleep, attention, aggressive and sexual behaviors, learning and memory, operant behaviors, appetite and food intake. In addition, amphetamine induces psychotic reactions in normal individuals and exacerbates symptoms of schizophrenia in patients. In experimental animals several distinct behaviors are considered to be correlates of amphetamine psychosis. For example, amphetamine-induced hyperactivity in rodents is believed to model the psychotic symptoms of schizophrenia. Reversal of these behaviors is used to predict potential antipsychotic activity of drugs in pre-clinical studies.
(§1) In humans, phencyclidine (PCP) is known to produce a syndrome of behavioral effects which have many characteristics in common with schizophrenia. Therefore, antagonism of PCP effects might be evidence for antipsychotic efficacy of a compound.
Male NMRI mice (5-week old, Janvier, France) or C57BL/6J mice (6-week old, Janvier, France) were group housed and allowed ad-libitum access to food and water. A 12 hour light/dark cycle was imposed with lights-on period between 0530 and 1730 hours. All testing occurred between 700 and 1300 hours. All procedures were approved by Abbott Institutional Animal Care and Use Committee (USA) or Animal Welfare Officer (Germany) and were conducted in accordance with the National Institutes of Health Guide for Care and Use of Laboratory Animals guidelines and applicable national laws in the facilities accredited by the Association for the Assessment and Accreditation of Laboratory Animal Care.
On the day of experiment, animals were brought from the animal facility into the experimental room and were allowed to acclimatize for at least 30 minutes. Animals were then placed in the test cages for a habituation period of 60 minutes. The animals were then injected ip with the test compound and returned to the test cage. 30 Minutes later the mice were injected with d-amphetamine (2.0 mg/kg, AMP, Sigma, #A5880, sc) or phencyclidine (2.0 mg/kg, PCP, Sigma, #P3029, sc) Sigma, and returned to the test cages for 90 minutes. Each treatment group consisted of 8-10 animals. The data was acquired by Cage rack Photobeam system (SDI, San Diego Instruments, CA). The analyzed data were: fine movements, ambulations and total movements (fine+ambulations). Data was subjected to one- or two-way distribution-free ANOVA followed by Dunnett's and Tukey's post hoc tests.

[2] = tested on: PCP-induced hyperlocomotion; experiment: Psychostimulant (PCP)-induced hyperlocomotion in rat; assay type: in vivo; details: male CD rats; i.p. 1, 3, 10 mg/kg 30 min before PCP 2 mg/kg sc; significant at 1 mg/kg and 10 mg/kg
Description: (vii) Assessment of Effects on Psychostimulant-Induced Hyperlocomotion in Rat
as §1
Male CD rats with a body weight of 316-394 g from Charles River (Portage, Mich.) were used in this study. The rats were habituated to the test room for 60 minutes. The rats were then placed into the locomotor activity chambers (AccuScan Instruments) for 30 minutes and then were dosed i.p. with Example 115 at 0, 1, 3 and 10 mg/kg. The rats were dosed sc 30 minutes later with PCP at 0 or 2 mg/kg. The activity was measured for 150 minutes in total and 90 minutes post PCP.

SHR pups = experiment: 5-trial inhibitory avoidance/impulsivity model in pups of spontaneously hypertensive rat; assay type: in vivo; details: sc 1, 3 and 10 mg/kg, acute, compared to vehicle
Excerpt: (ix) 5-Trial Inhibitory Avoidance/Impulsivity Model in the Pups of Spontaneously Hypertensive Rat
However, the adult rats have spontaneous hypertension which may confound behavioral assessment. The juvenile SHRs were used in the current study since these pups show similar behavioral deficits while having not developed hypertension. The aim was to investigate the efficacy of 5-HT2c agonists in SHR pups in an inhibitory avoidance model, as indication of enhancement of inhibitory control/or anti-impulsivity.
SHR pups at postnatal day 21-28 were sc dosed with either vehicle or Example 115 (1, 3, and 10 mg/kg; dissolved in tartaric acid/PH4-6) 30 minutes prior to the test. Upon testing initiation, pups were placed into the light side of a computer controlling 2-chambered compartment. The latency to enter the adjoining dark chamber was recorded, and an inescapable footshock (0.1 mA, 1 second duration) was presented to the pup. The pup was removed, placed back into the home cage for approximately 1 minute, and the process repeated for a total of 5 trials. The dependent variable used for data analysis was the total transfer latency of trial 2 to trial 5.

[3] = tested on: MK-801-induced deficits in inhibitory avoidance; experiment: 24-hour inhibitory avoidance in mouse (MK-801-induced deficit); assay type: in vivo; details: CD1 mice; i.p.; high dose of 10 mg/kg; compared to Veh-MK-801 (0.1 mg/kg)
Excerpt: (viii) Inhibitory Avoidance in Mouse
Specifically in the hippocampus CA1 area, N-methyl-D-aspartic acid (NMDA) receptors are known to regulate synaptic plasticity, long term-potentiation (LTP), and learning and memory processes, including short- and long-term memories. […] The inhibitory avoidance task involves the uses of a two-compartment step through apparatus (Ugo Basile, Collegeville, Pa.) that measures the animal's ability to remember a brief noxious stimulus (foot shock), and is considered a measure of trial learning, and memory. (Bitner, R. S., et al. J. Neurosci. 2007, 27(39), 10578-10587). The purpose of this experiment was to test the ability of a 5HTc agonist to attenuate MK-801-induced deficits in the 24-hour inhibitory avoidance test. Effects against MK-801-induced cognitive impairment may indicate a potential efficacy in treating cognitive deficits of schizophrenia.
Following a 2 hour habituation period, CD1 mice first received i.p. treatment with the test compound at 0, 1, 3, 10 mg/kg. 20 minutes later mice then received either MK-801 at 0.1 mg/kg (dissolved in 0.3% tartaric acid) or vehicle (Veh, water). […] The latency to enter the adjoining dark chamber was recorded, and an inescapable foot shock (0.3 mA, 1 second duration) was presented to the mouse. […] The latency to enter the dark chamber was recorded and was the dependent variable measured for assessing memory retention.

With `CN1C[C@@H]2CNC(=O)c3cc(-c4ccc(F)cc4)ccc3[C@H]2C1` [Example 115, (3aS,10bS)-8-(4-Fluorophenyl)-2-methyl-1,2,3,3a,4,5-hexahydrobenzo[e]pyrrolo[3,4-c]azepin-6(10bH)-one] the spontaneous activity ([1]; after ip test compound, before psychostimulant) was “without affecting spontaneous activity”, the AMP-induced hyperactivity ([1]; test compound ip 30 min before d-amphetamine 2.0 mg/kg sc) was “attenuated AMP-induced hyperactivity in mice significantly and in a dose dependent manner; also recorded: attenuating the affect of d-amphetamine (AMP)” and the “PCP-induced hyperlocomotion (distance traveled)” value [2] was “significantly attenuate the PCP-induced hyperlocomotion; also recorded: attenuating the affect of phencyclidine (PCP)”. The “total transfer latency of trial 2 to trial 5” value (SHR pups) was “dose-dependent increase in transfer latencies; also recorded: dose-dependent improvement in 5-trial inhibitory avoidance scores” and the “transfer latency, 24-hour inhibitory avoidance” value [3] was “significantly increased transfer latencies; also recorded: dose-dependent improvement in mouse 24-hour inhibitory avoidance scores”.
